Experimental data taken from ChEMBL document CHEMBL1148101, “Structure/activity relationship of some natural monoterpenes as acaricides against Psoroptes cuniculi” (1995).

Columns and labels:
Assay type in all cases: functional
Psoroptes ovis [1] = experiment: Acaricidal activity against Psoroptes cuniculi at 36 uL after 24 hrs by inhalation assay
Psoroptes ovis [2] = experiment: Acaricidal activity against Psoroptes cuniculi at 0.125% dilution in physiological saline after 48 hrs by direct contact assay
Psoroptes ovis [3] = experiment: Acaricidal activity against Psoroptes cuniculi at 1% dilution in physiological saline after 48 hrs by direct contact assay
Psoroptes ovis [4] = experiment: Acaricidal activity against Psoroptes cuniculi at 6 uL after 24 hrs by inhalation assay
Psoroptes ovis [5] = experiment: Acaricidal activity against Psoroptes cuniculi at 18 uL after 24 hrs by inhalation assay
Psoroptes ovis [6] = experiment: Acaricidal activity against Psoroptes cuniculi at 0.25% dilution in physiological saline after 48 hrs by direct contact assay
Psoroptes ovis [7] = experiment: Acaricidal activity against Psoroptes cuniculi at 3 uL after 24 hrs by inhalation assay
Psoroptes ovis [8] = experiment: Acaricidal activity against Psoroptes cuniculi at 1 uL after 24 hrs by inhalation assay

Row | Compound | Activity (Psoroptes ovis [1]) [%] | Activity (Psoroptes ovis [2]) [%] | Activity (Psoroptes ovis [3]) [%] | Activity (Psoroptes ovis [4]) [%] | Activity (Psoroptes ovis [5]) [%] | Activity (Psoroptes ovis [6]) [%] | Activity (Psoroptes ovis [7]) [%] | Activity (Psoroptes ovis [8]) [%]
1 | CC1CCC(C(C)C)C(O)C1 (stereo not drawn) [MENTHOL] | 100 | 100 | 100 | 100 | 100 | 100 | – | –
2 | CC1=CC[C@@H](C(C)(C)O)CC1 [ALPHA-TERPINEOL] | – | 100 | 100 | 98.3 | – | 100 | 98.3 | 73.3
3 | CC(C)=CCC/C(C)=C/CO [GERANIOL] | – | 100 | 100 | 96.7 | – | 100 | 93.3 | 95
4 | CC1=CCC(O)(C(C)C)CC1 (stereo not drawn) [TERPINEOL] | – | 100 | 100 | 100 | – | 100 | 41.7 | 5
5 | C=C(C)[C@H]1CC=C(C)CC1 [D-LIMONENE] | – | 0 | 0 | 0 | – | 0 | 0 | 0
6 | C=CC(C)(O)CCC=C(C)C (stereo not drawn) [LINALOOL] | – | 97 | 100 | 100 | – | 100 | 75 | 36.7
7 | C=CC(C)(CCC=C(C)C)OC(C)=O (stereo not drawn) [LINALYL ACETATE] | – | 5 | 40 | 20 | – | 35 | 13.3 | 0
8 | CC1=CCC(C(C)C)=CC1 [GAMMA-TERPINENE] | – | 0 | 0 | 0 | – | 0 | 0 | 0
9 | Cc1ccc(C(C)C)c(O)c1 [THYMOL] | 100 | 100 | 100 | 100 | 100 | 100 | – | –
10 | CC(C)=CCC/C(C)=C\CO [NEROL] | – | 100 | 100 | 100 | – | 98.3 | 83.3 | 36.7
11 | C=CC(=C)CCC=C(C)C [MYRCENE] | – | 0 | 0 | 6.7 | – | 0 | 5.2 | 0
12 | C=CCc1ccc(OC)cc1 [ESTRAGOLE] | – | 0 | 100 | 5 | – | 63.3 | 6.7 | 0
13 | C=CCc1ccc(O)c(OC)c1 [EUGENOL] | – | 100 | 100 | 100 | – | 100 | 96.7 | 86.7
